Experimental data published in patent US20140378460A1, “COMPOSITIONS AND METHODS FOR TREATING NEURODEGENERATIVE DISEASE” (COGNITION THERAPEUTICS, INC., priority 2011, published 2014).
Entries after “also recorded” stand apart in the source; their conditions may differ. Read-outs that look alike come from different tables or passages of the source.

Key:
[1] = test system: Abeta oligomer-induced membrane trafficking deficits in primary hippocampal neurons; assay: Membrane trafficking/exocytosis (MTT) assay; assay type: cell-based, rat; settings: for EC50: Rattus norvegicus, Hippocampal neuron; for Effect on membrane trafficking when dosed alone (words): absence of Abeta oligomers; for Effect against human Alzheimer's patient-derived Abeta oligomers (words): oligomers isolated from AD patient brains
sigma-2 receptor [2] = target: T1, sigma-2 receptor (Rattus norvegicus, UniProt Q5U3Y7); assay: Competitive Radioligand Binding Assay 2, sigma-2, rat liver membrane homogenates; set-up: conducted using rat liver membrane homogenates; from tissue; host or cells: rat liver membrane homogenates; settings: read-out: Ki at sigma-2 receptors
T1 sequence (Q5U3Y7 1-176): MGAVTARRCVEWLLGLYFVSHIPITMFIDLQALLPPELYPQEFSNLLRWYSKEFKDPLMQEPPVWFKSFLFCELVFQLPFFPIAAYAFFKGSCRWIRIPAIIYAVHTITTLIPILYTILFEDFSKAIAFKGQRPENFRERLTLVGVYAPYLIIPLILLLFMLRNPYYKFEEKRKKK
Experimental: Test compounds were dissolved in N,N-Dimethylformamide (DMF), dimethyl sulfoxide (DMSO) or ethanol and then diluted in 50 mM Tris-HCl pH 7.4 buffer containing 150 mM NaCl and 100 mM EDTA. Membrane homogenates were made from guinea pig brain for sigma-1 binding assay and rat liver for sigma-2 binding assay. Membrane homogenates were diluted with 50 mM Tris-HCl buffer, pH 8.0 and incubated at 25° C. in a total volume of 150 uL in 96 well plates with the radioligand and test compounds with concentrations ranging from 0.1 nM to 10 uM. After incubation was completed, the reactions were terminated by the addition of 150 uL of ice-cold wash buffer (10 mM Tris HCl, 150 mM NaCl, pH 7.4) using a 96 channel transfer pipette (Fisher Scientific, Pittsburgh, Pa.) and the samples harvested and filtered rapidly through 96 well fiber glass filter plate (Millipore, Billerica, Mass.) that had been presoaked with 100 uL of 50 mM Tris-HCl buffer. Each filter was washed four times with 200 uL of ice-cold wash buffer (10 mM Tris-HCl, 150 mM NaCl, pH 7.4).
The binding affinity, Ki values was calculated using the method of Cheng and Prusoff.

[3] = test system: Abeta oligomer-induced synapse loss in primary hippocampal neurons; assay: Synapse loss assay; assay type: cell-based, rat
Experimental: In this assay, Abeta oligomers were brought in contact with mature primary neurons in culture and their binding was determined by immunohistochemistry (anti-Abeta antibody) and quantified by image processing. The amount of Abeta in neuronal dendrites is assessed by counting the number of labeled puncta on the neuritis. […] This labeling is associated with synapses, co-localizing with the post-synaptic scaffold protein PSD-95 (Lacor et al., '04). […] The number of synapses can also be quantified in this assay by immunofluorochemistry. Similar procedures for binding assays can be found in the literature. […] Review.
Primary hippocampal neuronal culture was established as in the membrane trafficking assay above. […] Pretreatment with compounds to be tested lasted for 1 hr and addition of Abeta oligomers or no oligomer (vehicle alone) in a final concentration of 70 ul was followed by incubation for an additional 23 hrs.
The plates were then washed 3× with PBS for 5 min each. The plates were blocked at RT for 1 hr in 5% goat serum and 0.5% Triton X-100 in PBS. […] Primary antibodies were incubated overnight at 4° C. The plates were then washed 3× with PBS for 5 min each. […] Secondary antibodies were incubated at RT for 1 hr. The plates were washed once with PBS. DAPI (4′,6-diamidino-2-phenylindole, Invitrogen) was then applied at 0.03 ug/ul and incubated at RT for 5 min, then washed with PBS.

[4] = test system: Abeta oligomer-induced memory deficits in wt C57BL/6 mice; assay: Contextual fear conditioning, intrahippocampal Abeta oligomers; assay type: in vivo, mouse; settings: before oligomers
Experimental: Several pharmaceutical companies use this same model in their discovery efforts. Contextual fear conditioning is an accepted model of associative memory formation which correlates to human cognitive function and specifically the creation of new memories (Delgado '06). Abeta oligomers are injected into the hippocampus of wild-type animals immediately before conditioning training and memory is assessed via freezing behavior after 24 hours. See, for example, FIGS. 4 and 8. Details are provided in Example 9. […] This model system was chosen because intrahippocampal administration of oligomers allows rapid comparative assessment of compound activity and off-target toxicity. The results are shown graphically in FIG. 4.
Compound II was tested in an animal model of a memory-dependent behavioral task known as fear conditioning. The study protocol was designed based on published protocols (See e.g. Puzzo D, Privitera L, Leznik E, Fà M, Staniszewski A, Palmeri A, Arancio O. Picomolar amyloid-beta positively modulates synaptic plasticity and memory in hippocampus. J. Neurosci. 2008 Dec. 31; 28(53):14537-45.). The formation of contextual memories is dependent upon the integrity of medial temporal lobe structures such as the hippocampus. […]

HepG2 tumor cell line = assay: HepG2 toxicity; assay type: cell-based; settings: 10 μM
Sigma-1 receptors = Sigma-1 receptors (Homo sapiens, UniProt Q99720); assay: Sigma-1 competitive radioligand binding, [3H](+)pentazocine, Jurkat cell membranes
Chain of Sigma-1 receptors (Q99720 whole entry): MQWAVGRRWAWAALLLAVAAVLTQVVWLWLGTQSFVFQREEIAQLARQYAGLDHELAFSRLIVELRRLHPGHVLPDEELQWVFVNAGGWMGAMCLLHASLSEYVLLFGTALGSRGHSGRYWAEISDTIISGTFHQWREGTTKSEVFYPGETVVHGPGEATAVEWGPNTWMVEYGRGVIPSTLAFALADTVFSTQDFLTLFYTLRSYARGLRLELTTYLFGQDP
Experimental: Reactions were terminated by rapid filtration through Whatman GF/C filters using a Brandel 12R cell harvester followed by two washes with ice-cold buffer. Radioactivity on the dried filter discs was measured using a liquid scintillation analyzer (Tri-Carb 2900TR; PerkinElmer Life and Analytical Sciences). The displacement curves were plotted and the Ki values of the test ligands for the receptor subtypes were determined using GraphPad Prism (GraphPad Software Inc., San Diego, Calif.). The percentage specific binding was determined by dividing the difference between total bound (disintegrations per minute) and nonspecific bound (disintegrations per minute) by the total bound (disintegrations per minute).

sigma-2 receptor [5] = settings: 1 μM each; 18.4 nM [3H]-RHM-1
[6] = test system: sigma 2 (agonist radioligand); assay: Receptor panel, inhibition of binding; settings: Compound II 10 uM
[7] = test system: caspase-3 in neuronal cultures; assay: Caspase-3 activity in neurons; assay type: cell-based
[8] = target: mu (MOP) (h) (agonist radioligand) (Homo sapiens, UniProt P35372); assay: Receptor panel, inhibition of binding
Chain of mu (MOP) (h) (agonist radioligand) (P35372 whole entry): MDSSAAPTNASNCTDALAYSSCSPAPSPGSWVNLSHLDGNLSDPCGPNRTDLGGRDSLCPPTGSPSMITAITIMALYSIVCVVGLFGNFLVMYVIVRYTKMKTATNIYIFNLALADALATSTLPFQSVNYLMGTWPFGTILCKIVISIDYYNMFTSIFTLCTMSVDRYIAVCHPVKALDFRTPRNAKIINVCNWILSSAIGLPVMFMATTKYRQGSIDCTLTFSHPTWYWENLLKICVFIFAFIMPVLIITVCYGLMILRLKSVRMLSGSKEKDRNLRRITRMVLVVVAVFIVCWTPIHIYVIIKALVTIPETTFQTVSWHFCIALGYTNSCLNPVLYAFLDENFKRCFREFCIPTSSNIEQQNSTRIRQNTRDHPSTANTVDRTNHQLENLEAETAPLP

COc1cc(CCC(C)NCc2ccc(C(F)(F)F)cc2)ccc1O (stereo not shown) [Compound II]
Effect on Abeta oligomer trafficking deficits over the concentrations tested [1]: blocks oligomer-induced trafficking deficits at all concentrations tested
Max Inhibition of Abeta (%) [1]: 68%
Ki ([1]; Km for Abeta = 0.4 uM, assay concentr. 3 μM total Abeta, read-out: Calculated Ki): 260 nM
EC50 ([1]; Table 11A, read-out: Block Aβ-induced membrane trafficking deficits EC50): 2200 nM
EC50 ([1]; Table 11B, read-out: Inhibition Abeta oligomer-induced Membrane Trafficking EC50): 2200 nM
EC50 ([1]; Table 12, read-out: EC50): 2200 nM
EC50 ([1]; added after oligomers (treatment mode), read-out: EC50 blocking oligomer effects): 4100 nM
EC50 ([1]; added before oligomers (prevention mode), read-out: EC50 blocking oligomer effects): 2200 nM
Functional Neuronal Phenotype ([1]; Table 11B): Antagonist
Effect on membrane trafficking when dosed alone (words) [1]: no significant effect on membrane trafficking
Effect on membrane trafficking when dosed alone (words) ([1]; listed as compound II): does not affect membrane trafficking
Cpd alone at Ki ([1]; compound without Abeta oligomers): +1%
Max Inhib. of Abeta (Conc) ([1]; concentration in brackets): 85% (10)
Effect against human Alzheimer's patient-derived Abeta oligomers (words) [1]: completely eliminated
Effect against human Alzheimer's patient-derived Abeta oligomers (words) ([1]; listed as compound II): rightward shift; also recorded: blocks the membrane trafficking deficits
Schild slope ([1]; synthetic Abeta oligomers): −0.75
Assay effects in the absence of Aβ ([1]; trafficking or synapse number without Abeta oligomer): No
Ki (sigma-2 receptor [2]): 59.7 nM
Effect on Abeta oligomer-induced synapse loss [3]: completely eliminated this synaptic regression
Abeta oligomer-induced synapse loss eliminated ([3]; 5 μM): 100%
Block synapse loss ([3]; Table 11B): 100%
Abeta oligomer-induced synapse loss eliminated / recovery ([3]; b801): 100%
Effect on Abeta oligomer-induced memory deficits [4]: eliminated memory deficits; also recorded: completely blocked oligomer-mediated memory deficits at the 2 pmol dose
HepG2 toxicity (HepG2 tumor cell line): 66%
Ki (Sigma-1 receptors; Ki at sigma-1 receptors, displacement of [3H]-(+)-pentazocine, human Jurkat cell membranes): 500 nM
Ki (Sigma-1 receptors; S1 binding Ki (nM), Table 11B): 500 nM
Ki (Sigma-1 receptors; Sigma 1 Binding Ki (nM), Table 2, own compounds): 500 nM
Ki (Sigma-1 receptors; Sigma Affinity (S1) nM, Table 11E, own compounds): 500 nM
Displacement of [3H]-RHM-1 (sigma-2 receptor [5]): partially displace
% Inhibition of Control [6]: 89%
Block of SV-119-induced caspase-3 activation in neurons [7]: blocked caspase-3 activation
Caspase-3 activity induced in neurons [7]: did not induce caspase-3 activity
Other Targets: Mu opioid ([8]; Table 11E): opioid (4 uM),
inhibition at 10 µM ([8]; read-out: % Inhibition of Control): 60%
